# Data from patent US9050345B2, “Pyrrolotriazines as potassium ion channel inhibitors” (BRISTOL-MYERS SQUIBB COMPANY, priority 2013, dated 2015).
# Molecular target: T1, human KV 1.5 (IKur) (Homo sapiens, UniProt P22460)
# T1 construct: expressed in transfected cells
# Assay: block of IKur current in patch clamped L-929 cells expressing human Kv1.5
# Assay type: cell-based
# Details: L929, 0.3 μM; patch clamped mammalian L-929 cells stably expressing human Kv1.5; read-out: KV1_5% Inh L929 @0.3 μM
# Source text: Assays to determine the degree of activity of a compound as an IKur inhibitor are well known in the art and are described in references such as J. Gen. Physiol., 101(4):513-543 (April 1993), and Br. J. Pharmacol., 115(2):267-274 (May 1995).
# Synders, D. J. et al., “A rapidly activating and slowly inactivating potassium channel cloned from human heart: functional analysis after stable mammalian cell culture expression”, J. Gen. Physiol., 101:513-543 (1993). • 2. Zhou, Z. et al., “Block of HERG potassium channels by the antihistamine astemizole and its metabolites desmethylastemizole and norastemizole”, J. Cardiovasc. Electrophysiol., 10(6):836-843 (1999).
# T1 sequence (P22460 whole entry): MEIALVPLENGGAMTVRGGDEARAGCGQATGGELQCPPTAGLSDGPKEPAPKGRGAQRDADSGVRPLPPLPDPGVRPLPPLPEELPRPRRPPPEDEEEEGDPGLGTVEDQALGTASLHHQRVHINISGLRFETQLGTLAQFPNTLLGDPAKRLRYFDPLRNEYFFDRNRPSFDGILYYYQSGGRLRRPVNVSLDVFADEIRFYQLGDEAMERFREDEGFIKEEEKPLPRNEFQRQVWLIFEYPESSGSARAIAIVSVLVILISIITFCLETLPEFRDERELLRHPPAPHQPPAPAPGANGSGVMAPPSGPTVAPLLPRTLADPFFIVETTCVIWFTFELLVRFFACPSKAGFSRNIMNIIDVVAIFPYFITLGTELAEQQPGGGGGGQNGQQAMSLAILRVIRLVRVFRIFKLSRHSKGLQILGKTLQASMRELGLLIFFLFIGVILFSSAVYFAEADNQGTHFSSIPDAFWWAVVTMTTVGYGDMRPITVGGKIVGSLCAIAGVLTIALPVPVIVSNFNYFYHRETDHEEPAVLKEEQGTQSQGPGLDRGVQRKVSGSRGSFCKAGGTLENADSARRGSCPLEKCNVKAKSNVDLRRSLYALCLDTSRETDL
row,Compound,inhibition at 0.3 µM
1,"NS(=O)(=O)c1cc(-c2nc(NCc3ccccn3)c3c(-c4ccccc4)ccn3n2)cnc1C(F)F [Example 39, 2-(Difluoromethyl)-5-(5-phenyl-4-(pyridin-2-ylmethylamino)pyrrolo[1,2-f][1,2,4]triazin-2-yl)pyridine-3-sulfonamide]",97.1%
2,"COc1ncc(-c2nc(N3Cc4cccnc4C3)c3c(-c4ccccc4)ccn3n2)cc1S(N)(=O)=O [Example 40, 2-Methoxy-5-(5-phenyl-4-(5H-pyrrolo[3,4-b]pyridin-6(7H)-yl)pyrrolo[1,2-f][1,2,4]triazin-2-yl)pyridine-3-sulfonamide]",40.4%
3,"CC(C)Oc1ncc(-c2nc(NCc3ccccn3)c3c(-c4ccccc4)ccn3n2)cc1S(N)(=O)=O [Example 41, 2-Isopropoxy-5-(5-phenyl-4-((pyridin-2-ylmethyl)amino)pyrrolo[2,1-f][1,2,4]triazin-2-yl)pyridine-3-sulfonamide]",95.1%
4,"CC(=O)Nc1cncc(-c2nc(NCc3ccccn3)c3c(-c4ccccc4)ccn3n2)n1 [Example 42, N-(6-(5-Phenyl-4-(pyridin-2-ylmethylamino)pyrrolo[1,2-f][1,2,4]triazin-2-yl)pyrazin-2-yl)acetamide]",99.4%
5,"COC(=O)C(CS(N)(=O)=O)NC(=O)c1cncc(-c2nc(NCc3ccccc3)c3c(-c4ccccc4)ccn3n2)c1 (stereo not drawn) [Example 45, Methyl 2-(5-(4-(benzylamino)-5-phenylpyrrolo[2,1-f][1,2,4]triazin-2-yl)nicotinamido)-3-sulfamoylpropanoate]",90.1%
6,"CC(=O)Nc1cncc(-c2nc(NCc3ccccn3)c3c(-c4ccccc4)ccn3n2)c1 [Example 47, N-(5-(5-phenyl-4-(pyridin-2-ylmethylamino)pyrrolo[1,2-f][1,2,4]triazin-2-yl)pyridin-3-yl)acetamide]",94.8%
7,"CC(=O)Nc1cccc(-c2nc(NCc3ccccn3)c3c(-c4ccccc4)ccn3n2)c1 [Example 48, N-(3-(5-phenyl-4-(pyridin-2-ylmethylamino)pyrrolo[1,2-f][1,2,4]triazin-2-yl)phenyl) acetamide]",96.6%
8,"NS(=O)(=O)c1cc(-c2nc(NCc3ccccn3)c3c(-c4ccccc4)ccn3n2)cnc1O [Example 49, 2-hydroxy-5-(5-phenyl-4-(pyridin-2-ylmethylamino)pyrrolo[1,2-f][1,2,4]triazin-2-yl)pyridine-3-sulfonamide]",84.9%
9,NS(=O)(=O)Nc1cccc(-c2nc(NCc3ccccn3)c3c(-c4ccccc4)ccn3n2)c1 [Example 50],97.8%
10,"CCOC(=O)CS(=O)(=O)Nc1cncc(-c2nc(NCc3ccccn3)c3c(-c4ccccc4)ccn3n2)c1 [Example 51, ethyl 2-(N-(5-(5-phenyl-4-(pyridin-2-ylmethylamino)pyrrolo[1,2-f][1,2,4]triazin-2-yl)pyridin-3-yl)sulfamoyl)acetate]",88.2%
11,"NC(=O)CC(=O)Nc1cncc(-c2nc(NCc3ccccn3)c3c(-c4ccccc4)ccn3n2)c1 [Example 52, N1-(5-(5-phenyl-4-(pyridin-2-ylmethylamino)pyrrolo[1,2-f][1,2,4]triazin-2-yl)pyridin-3-yl)malonamide]",96.1%
12,"CC(=O)Nc1ccccc1-c1nc(NCc2ccccn2)c2c(-c3ccccc3)ccn2n1 [Example 53, N-(2-(5-phenyl-4-(pyridin-2-ylmethylamino)pyrrolo[1,2-f][1,2,4]triazin-2-yl)phenyl) acetamide]",98.1%
13,"CC(=O)Nc1ccc(-c2nc(NCc3ccccn3)c3c(-c4ccccc4)ccn3n2)cn1 [Example 54, N-(5-(5-phenyl-4-(pyridin-2-ylmethylamino)pyrrolo[1,2-f][1,2,4]triazin-2-yl)pyridin-2-yl)acetamide]",90.2%
14,"NC(=O)CS(=O)(=O)Nc1cncc(-c2nc(NCc3ccccn3)c3c(-c4ccccc4)ccn3n2)c1 [Example 55, 2-(N-(5-(5-phenyl-4-(pyridin-2-ylmethylamino)pyrrolo[1,2-f][1,2,4]triazin-2-yl)pyridin-3-yl)sulfamoyl)acetamide]",20.6%
15,"O=S(=O)(Nc1cncc(-c2nc(NCc3ccccn3)c3c(-c4ccccc4)ccn3n2)c1)C1CC1 [Example 56, N-(5-(5-phenyl-4-(pyridin-2-ylmethylamino)pyrrolo[1,2-f][1,2,4]triazin-2-yl)pyridin-3-yl) cyclopropanesulfonamide]",93.8%
16,"CCCS(=O)(=O)Nc1cncc(-c2nc(NCc3ccccn3)c3c(-c4ccccc4)ccn3n2)c1 [Example 57, N-(5-(5-phenyl-4-(pyridin-2-ylmethylamino)pyrrolo[1,2-f][1,2,4]triazin-2-yl)pyridin-3-yl) propane-1-sulfonamide]",95.5%
17,"CC(C)CS(=O)(=O)Nc1cncc(-c2nc(NCc3ccccn3)c3c(-c4ccccc4)ccn3n2)c1 [Example 58, 2-methyl-N-(5-(5-phenyl-4-(pyridin-2-ylmethylamino)pyrrolo [1,2-f][1,2,4]triazin-2-yl)pyridin-3-yl) propane-1-sulfonamide]",96.1%

row,Compound,inhibition at 0.3 µM
1,"CCOC(=O)Nc1cncc(-c2nc(NCc3ccccn3)c3c(-c4ccccc4)ccn3n2)c1 [Example 59, ethyl 5-(5-phenyl-4-(pyridin-2-ylmethylamino)pyrrolo[1,2-f][1,2,4]triazin-2-yl)pyridin-3-ylcarbamate]",97%
2,"CCOC(=O)CS(=O)(=O)Nc1cccc(-c2nc(NCc3ccccn3)c3c(-c4ccccc4)ccn3n2)c1 [Example 60, ethyl 2-(N-(3-(5-phenyl-4-(pyridin-2-ylmethylamino)pyrrolo[1,2-f][1,2,4]triazin-2-yl)phenyl)sulfamoyl)acetate]",97.6%
3,"O=S(=O)(CC(F)(F)F)Nc1cncc(-c2nc(NCc3ccccn3)c3c(-c4ccccc4)ccn3n2)c1 [Example 61, 2,2,2-trifluoro-N-(5-(5-phenyl-4-(pyridin-2-ylmethylamino)pyrrolo [1,2-f][1,2,4]triazin-2-yl)pyridin-3-yl)ethanesulfonamide]",90%
4,"CCS(=O)(=O)Nc1cncc(-c2nc(NCc3ccccn3)c3c(-c4ccccc4)ccn3n2)c1 [Example 62, N-(5-(5-phenyl-4-(pyridin-2-ylmethylamino)pyrrolo[1,2-f][1,2,4]triazin-2-yl)pyridin-3-yl)ethanesulfonamide]",97.9%
5,"O=S(=O)(CCCCl)Nc1cncc(-c2nc(NCc3ccccn3)c3c(-c4ccccc4)ccn3n2)c1 [Example 63, 3-chloro-N-(5-(5-phenyl-4-(pyridin-2-ylmethylamino)pyrrolo[1,2-f][1,2,4]triazin-2-yl)pyridin-3-yl)propane-1-sulfonamide]",97.8%
6,"CC(C)S(=O)(=O)Nc1cncc(-c2nc(NCc3ccccn3)c3c(-c4ccccc4)ccn3n2)c1 [Example 64, N-(5-(5-phenyl-4-(pyridin-2-ylmethylamino)pyrrolo[1,2-f][1,2,4]triazin-2-yl)pyridin-3-yl)propane-2-sulfonamide]",97.6%
7,"c1ccc(-c2ccn3nc(-c4cn[nH]c4)nc(NCc4ccccn4)c23)cc1 [Example 65, 5-phenyl-2-(1H-pyrazol-4-yl)-N-(pyridin-2-ylmethyl) pyrrolo[1,2-f][1,2,4] triazin-4-amine]",97.7%
8,"N#Cc1cccc(-c2nc(NCc3ccccn3)c3c(-c4ccccc4)ccn3n2)c1 [Example 66, 3-(5-phenyl-4-(pyridin-2-ylmethylamino)pyrrolo[1,2-f][1,2,4]triazin-2-yl)benzonitrile]",89.2%
9,"N#Cc1ccc(-c2nc(NCc3ccccn3)c3c(-c4ccccc4)ccn3n2)cc1 [Example 67, 4-(5-phenyl-4-(pyridin-2-ylmethylamino)pyrrolo [1,2-f][1,2,4]triazin-2-yl)benzonitrile]",97.8%
10,"Nc1cncc(-c2nc(NCc3ccccn3)c3c(-c4cncc(N)c4)ccn3n2)c1 [Example 68, 5,5′-(4-(pyridin-2-ylmethylamino)pyrrolo [1,2-f][1,2,4]triazine-2-,5-diyl)dipyridin-3-amine]",28.1%
11,"N#Cc1cccc(-c2ccn3nc(-c4cncc(N)c4)nc(NCc4ccccn4)c23)c1 [Example 69, 3-(2-(5-aminopyridin-3-yl)-4-(pyridin-2-ylmethylamino)pyrrolo [1,2-f][1,2,4]triazin-5-yl)benzonitrile]",80.3%
12,"COc1ccc(-c2ccn3nc(-c4cncc(N)c4)nc(NCc4ccccn4)c23)cn1 [Example 70, 2-(5-aminopyridin-3-yl)-5-(6-methoxypyridin-3-yl)-N-(pyridin-2-ylmethyl) pyrrolo[1,2-f][1,2,4] triazin-4-amine]",85.4%
13,"Cc1ncc(-c2nc(NCc3ccccn3)c3c(-c4ccccc4)ccn3n2)cc1N [Example 71, 2-(5-amino-6-methylpyridin-3-yl)-5-phenyl-N-(pyridin-2-ylmethyl)pyrrolo[1,2-f] [1,2,4]triazin-4-amine]",89.1%
14,"CC(C)OC(=O)Nc1cncc(-c2nc(NCc3ccccn3)c3c(-c4ccccc4)ccn3n2)c1 [Example 72, isopropyl 5-(5-phenyl-4-(pyridin-2-ylmethylamino)pyrrolo[1,2-f][1,2,4]triazin-2-yl)pyridin-3-ylcarbamate]",95.5%
15,"Nc1cncc(-c2nc(NCC3CCCCC3)c3c(-c4ccccc4)ccn3n2)c1 [Example 73, 2-(5-aminopyridin-3-yl)-N-(cyclohexylmethyl)-5-phenylpyrrolo[1,2-f] [1,2,4] triazin-4-amine]",88.3%
16,"CS(=O)(=O)Nc1cncc(-c2nc(NCc3ccccc3)c3c(-c4ccccc4)ccn3n2)c1 [Example 74, N-(5-(4-(benzylamino)-5-phenylpyrrolo [1,2-f][1,2,4]triazin-2-yl)pyridin-3-yl) methanesulfonamide]",96.7%
